The results in this text go back to patent US20130197043A1, “USE OF THE FETAL REPROGRAMMING OF A PPAR AGONIST” (SNU R&DB FOUNDATION, priority 2010, published 2013).

In assay [1] the target is T1, hPPARa (Homo sapiens, UniProt Q07869).
T1 construct: expressed in transfected cells; host or cells: CV-1 cells
T1 sequence (Q07869 1-468): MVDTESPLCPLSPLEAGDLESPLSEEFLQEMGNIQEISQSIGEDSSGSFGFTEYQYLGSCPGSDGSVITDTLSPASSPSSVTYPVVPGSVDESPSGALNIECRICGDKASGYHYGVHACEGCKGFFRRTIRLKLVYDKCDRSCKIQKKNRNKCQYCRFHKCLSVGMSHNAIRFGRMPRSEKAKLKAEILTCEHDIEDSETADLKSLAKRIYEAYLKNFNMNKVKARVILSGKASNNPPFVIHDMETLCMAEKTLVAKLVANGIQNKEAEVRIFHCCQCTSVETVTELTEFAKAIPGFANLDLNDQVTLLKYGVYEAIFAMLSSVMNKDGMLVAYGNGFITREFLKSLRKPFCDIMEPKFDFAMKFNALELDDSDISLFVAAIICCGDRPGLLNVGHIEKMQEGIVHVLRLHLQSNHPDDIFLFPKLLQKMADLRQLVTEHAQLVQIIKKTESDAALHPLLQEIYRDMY
Description: Transfection assay in CV-1 cells, hPPARa. The note with it: luciferase reporter. Type of assay: cell-based. As to the method:
This assay was conducted by using CV-1 cells. The cells were cultured on a 96-well plate with a DMEM medium containing 10% FBS, DBS (delipidated), and 1% penicillin/streptomycin in 37° C. of an incubator 5% of carbon dioxide. Test was conducted in four stages of cell inoculation, transfection, treatment with the developed material, and result confirmation. The CV-1 cells were inoculated on the 96-well plate at a cell density at 5,000 cells/well, and after 24 hours, transfection was performed. PPARs plasmid DNA, reporter DNA, and β-galactosidase DNA were mixed with a transfection reagent, and then used to treat the cells. The developed material was dissolved in dimethylsulfoxide (DMSO), and then was used to treat the cells by using media at various concentrations. After 24 hours of culturing in an incubator, the cells were lysed with a lysis buffer and luciferase activity and β-galactosidase activity were measured using a luminometer and a microplate reader. The measured luciferase value was calibrated with the β-galactosidase value, and this value was depicted on a graph and EC50 was determined.

In assay [2] the test system is mice subjected to fetal reprogramming. The assay can be described thus: Treadmill endurance test of mice subjected to fetal reprogramming. Type of assay: in vivo. The note with it: for Increase Rate (Administration Group/Control Group), Distance / Increase Rate (Administration Group/Control Group), Time: 10 mg/kg/day; for muscle colour after skin removal versus control: fetal reprogramming, 10 mg/kg/day oral; for running distance / running distance increase versus control / running time / running time increase versus control: maternal 10 mg/kg, gestation and lactation. As to the method: Before the experiment, mice were exercised for 5 minutes at a speed of 7 meters/min for two days so as to be adapted to exercising equipment. On day 3, the main experiment was conducted. As for the method for experiment, the mice were made to run at a speed of 10 meter/min for 60 minutes, and after that, the speed was increased at 1 meter/min once every 15 minutes until the maximum speed reaches 15 meters/min. As for the male mice, the running time was increased by 2.9 fold ([…], P<0.0001, n=6) and the running distance was increased by 3.0 fold (9927±1168 versus 3303±394 m, P<0.0001) in the PPAR δ agonist (CMDD1111)-administered mouse group than the control mouse group.
The Experiment using pregnant C57BL/6 mice was conducted in order to verify an endurance enhancement effect by fetal reprogramming of CMDD1226. […]
The experiment for verifying the fetal reprogramming effect of GW501516 and determining the optimum administration period thereof was conducted. The experiment method was shown in FIG. 1, and the experiment was conducted with respect to three kinds of administration periods (gestation period, lactation period, and both of gestation and lactation periods). As the experiment result, the group administered with PPAR δ agonist only during the gestation period had 2.6-fold and 3.2-fold increases in the running time and the running distance, respectively, and the group administered with PPAR δ agonist only during the lactation period had 2.4-fold and 3.0-fold increases in the running time and the running distance, respectively, as compared with the control group. The group administered with PPAR δ agonist during both the gestation and lactation periods had the most obvious increase in endurance, and had 5.1-fold and 6.6-fold increases as compared with the control group (FIG. 22).
The animal test was conducted in order to verify the muscle endurance enhancement and muscular function improvement effects of the material according to the present invention. […] […] The test using a treadmill was conducted in order to confirm the effect of this muscular fiber change on muscle endurance enhancement and muscular function improvement.

The test system is the same in assay [3]. Description: Morris water maze test of fetal-reprogrammed mice. The assay is classed as in vivo. The note with it: for Morris water maze test time: mother 10 mg/kg/day oral during the fetal reprogramming period; for Morris water maze test: average time required to find the platform: 8-week old, maternal 10 mg/kg/day gestation and lactation. As to the method: An animal experiment was conducted in order to verify a memory improvement effect of the mice subjected to fetal reprogramming by PPAR δ agonist. Pregnant mice were orally administered with PPAR δ agonist, CMDD1111, at a concentration of 10 mg/kg/day during the gestation and lactation periods in order to verify effects of the invented material at the brain formation stage. When the fetus became an 8-week old adult, the Morris water maze test was conducted to compare memory between the control group and the administration group. This test can check special learning and memory, and is a task that is mainly dependent on the hippocampus in the brain. As the experiment result, the average times required to find the flatform were 26 seconds and 22 seconds (male and female, respectively) for the control group and were 9 seconds and […] (male and female, respectively) for the administration group. Therefore, it was verified that the PPAR δ agonist improved memory during the fetal programming period, and this effect was maintained until the adulthood.
The animal test was conducted in order to verify the memory improvement effect of the material according to the present invention. Compounds 5 and 9, which are the developed materials, were orally administered to the mother at a concentration of 10 mg/kg/day during the fetal reprogramming period. The Morris water maze test was used to confirm the difference in brain function between the control group and the administered group.

The subject of assay [4] is HDL in serum. Description: High-density lipoprotein cholesterol (HDL) in serum. Type of assay: in vivo. The note with it: mice fed 10% fat feedstuff over 6 weeks. The source says: High-density lipoprotein cholesterol (HDL) has been known to play an important role in treating lipid metabolic disorders such as arteriosclerosis and hyperlipidemia while lowering the cholesterol level of an epidermal cell and mitigating an inflammatory reaction. Serum was separated from the mice fed over a 6-week period of feedstuff containing 10% fat in order to confirm the high-density cholesterol increase effect of Compounds 5 and 9, which were the developed materials of the present invention.

In assay [5] the test system is 10-week old C57BL/6 mice. The assay can be described thus: Treadmill endurance test of adult mice exercised while administered. Type of assay: in vivo. The settings on record: 10 mg/kg/day oral with exercise over 30 days. Here is the method:
In addition, it was verified that the developed material was effective in enhancing muscle endurance and improving muscular function. 10-week old C57BL/6 mice were exercised while being orally administered with the developed material at a concentration of 10 mg/kg/day. The mice were exercised using a treadmill for 30 minutes once each day over 30 days. The mice were exercised under exercise conditions of 2 meter/min for 5 minutes, 5 meters/min for 5 minutes, 8 meters/min for 5 minutes, and 20 meters/min for 5 minutes, respectively. By the end of the test, muscle endurance enhancement and muscular function improvement effects were tested by using a treadmill.

As for `Cc1cc(SC(Cc2ccc(-c3ccccc3)cc2)c2sc(-c3ccc(C(F)(F)F)cc3)nc2C)ccc1OCC(=O)O` (stereo not shown) [Compound 5], the “EC50 hPPARa” value in assay [1] is reported as “ia”. For the same compound, in assay [2] (Gestation + Lactation Periods), the “Increase Rate (Administration Group/Control Group), Distance” value is given as 3.9 fold and the “Increase Rate (Administration Group/Control Group), Time” value stood at 3.6 fold. Besides, in assay [2] (Gestation Period), the “Increase Rate (Administration Group/Control Group), Distance” value is on record as 2.5 fold and the “Increase Rate (Administration Group/Control Group), Time” value turned out to be 2.4 fold. Further, in assay [2] (Lactation Period), the “Increase Rate (Administration Group/Control Group), Distance” value is on record as 2.2 fold and the “Increase Rate (Administration Group/Control Group), Time” value was 2.1 fold. The “muscle colour after skin removal versus control” value in assay [2] is “redder than the control group”. Also, in assay [3], the “Morris water maze test time” value is 8.2 s. The “HDL increase in serum” value in assay [4] stood at 68%. Besides, in assay [5], the “increase in the running distance versus control” value turned out to be 1.8 fold and the “increase in the running time versus control” value came to 1.7 fold.
Consider `Cc1cc(SC(Cc2ccc(-c3ccc(F)cc3)cc2)c2sc(-c3ccc(C(F)(F)F)cc3)nc2C)ccc1OCC(=O)O` (stereo not shown) [Compound 9], for which the “EC50 hPPARa” value in assay [1] is given as “ia”. Further, in assay [2] (Gestation + Lactation Periods), the “Increase Rate (Administration Group/Control Group), Distance” value stood at 3.0 fold and the “Increase Rate (Administration Group/Control Group), Time” value is given as 2.8 fold. Further, in assay [2] (Gestation Period), the “Increase Rate (Administration Group/Control Group), Distance” value is reported as 1.9 fold and the “Increase Rate (Administration Group/Control Group), Time” value stood at 1.9 fold. Besides, in assay [2] (Lactation Period), the “Increase Rate (Administration Group/Control Group), Distance” value is on record as 1.5 fold and the “Increase Rate (Administration Group/Control Group), Time” value is listed as 1.5 fold. The “muscle colour after skin removal versus control” value in assay [2] is “redder than the control group”. Also, in assay [3], the “Morris water maze test time” value was found to be 9.7 s. Moreover, in assay [4], the “HDL increase in serum” value is on record as 62%. Besides, in assay [5], the “increase in the running distance versus control” value is recorded as 1.5 fold and the “increase in the running time versus control” value turned out to be 1.5 fold.
For the compound `Cc1cc(SC(Cc2ccccc2)c2sc(-c3ccc(C(F)(F)F)cc3)nc2C)ccc1OCC(=O)O` (stereo not shown) [CMDD1111], in assay [2] (female mice), the running distance was 11194±261 m, the “running distance increase versus control” value was found to be 2.1 fold, the running time is 761 ± 17 min and the “running time increase versus control” value was found to be 2.0 fold. In addition, in assay [2] (male mice), the running distance worked out at 9927±1168 m, the “running distance increase versus control” value is 3.0 fold, the running time worked out at 677 ± 78 min and the “running time increase versus control” value was found to be 2.9 fold. In addition, the “Morris water maze test: average time required to find the platform” value in assay [3] (female) came to 6 s. The “Morris water maze test: average time required to find the platform” value in assay [3] (male) came to 9 s.
